Reference: patent publication US20210317092A1 (BAYER PHARMA AKTIENGESELLSCHAFT, priority 2016, published 2021)
Read-outs that look alike come from different tables or passages of the source.

Experiments:
[1] = molecular target: T1, native human Bradykinin B1 receptor (Homo sapiens, UniProt P46663); assay: Calcium flux Assay (FLIPR) with human fibroblasts expressing Bradykinin B1 receptor (hB1 IMR-90); type: cell-based; details: IMR-90 human fibroblasts expressing native Bradykinin B1 receptor
T1 construct: which express native human Bradykinin B1 receptor after induction with human IL-10; Coriell Institute; host or cells: IMR-90 human foetal lung fibroblasts, cytokine-induced
T1 sequence (P46663 1-353): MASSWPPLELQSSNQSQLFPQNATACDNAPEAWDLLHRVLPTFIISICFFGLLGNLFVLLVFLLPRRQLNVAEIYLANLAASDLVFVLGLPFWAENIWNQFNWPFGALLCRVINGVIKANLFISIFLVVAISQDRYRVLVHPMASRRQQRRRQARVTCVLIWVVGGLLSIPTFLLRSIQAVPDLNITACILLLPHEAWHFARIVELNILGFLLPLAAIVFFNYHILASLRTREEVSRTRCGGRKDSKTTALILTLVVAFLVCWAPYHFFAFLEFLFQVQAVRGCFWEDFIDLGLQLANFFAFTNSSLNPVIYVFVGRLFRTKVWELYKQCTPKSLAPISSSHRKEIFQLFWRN
Protocol: Calcium flux Assay (FLIPR) with human fibroblasts expressing Bradykinin B1 receptor (hB1 IMR-90)
The Calcium flux Assay was carried out utilising IMR-90 human foetal lung fibroblasts (American Type Culture Collection, Rockville, Md.; and Coriell Institute, Camden, N.J.), which express native human Bradykinin B1 receptor after induction with human […].
The fibroblasts were cultured in complete growth media comprised of Dulbecco's modified Eagle's medium (DMEM; Sigma) containing 10% foetal bovine serum, 4 mM L-glutamine, and 1% nonessential amino acids. The cells were maintained in a humidified atmosphere with 5% CO2 at 37° C. and were sub-cultured at a ratio of 1:3, every other day.
For the assay, IMR-90 fibroblasts were harvested using TrypLE Express (GIBCO/Invitrogen) and seeded into 384-well plates (Corning Cellbinding Surface, Cat. 3683) at a density of 15000 cells/well. The following day, cells were treated with 0.35 ng/mL human […] in 10% FBS/MEM for 3h to up-regulate Bradykinin B1 receptor. Induced cells were loaded with fluorescent calcium indicator by incubation with 2.5 μM Fluo-4/AM (Invitrogen) at 37° C., 5% CO2 for 2 h in the presence of 2.5 mM probenecid in 1% FBS/MEM. Extracellular dye was removed by washing with assay buffer (2.5 mM probenecid and 0.1% BSA in 20 mM HEPES/HBSS without bicarbonate or phenol red, pH 7.5). Compound examples were assayed at 8 concentrations in triplicate. After addition of compound examples to the cell plate and incubation for 30 min at 28° C., the addition of Bradykinin B1 agonist Lys-(Des-Arg)-Bradykinin (Bachem, Brackley) at a final concentration of EC90 was carried out on the FLIPR instrument while continuously monitoring Ca^2+-dependent fluorescence at 538 nm. A peptide antagonist Lys-(Des-Arg-Leu)-Bradykinin (Bachem, Brackley) at 20 µM was used to determine the full inhibition as control. IC50 values were determined by the same way described for the FLIPR assay with recombinant cells.

[2] = molecular target: T2, human Bradykinin B1 receptor (Homo sapiens, UniProt P46663); assay: Calcium flux Assay (FLIPR) with recombinant CHO-K1 cells expressing human Bradykinin B1 receptor, in presence (hB1 IC50) or absence (hB1 free IC50) of 0.1% BSA; type: cell-based
T2 construct: host or cells: CHO-K1
T2 sequence (P46663 1-353): T1 sequence (P46663 1-353)

[3] = in absence of 0.1% BSA, read-out: hB1 free IC50
[4] = in presence of 0.1% BSA, read-out: hB1 IC50

IC50 [1] [nM]	IC50 [2, 3] [nM]	IC50 [2, 4] [nM]	Compound
39.3	56.4	18.1	COc1ccc(-c2ccc(NC(=O)C3(c4ccc(C)c(F)c4)CC3)cc2-c2nnn[nH]2)cc1OC [Example 12, N-[3′,4′-dimethoxy-2-(1H-tetrazol-5-yl)biphenyl-4-yl]-1-(3-fluoro-4-methylpheny) cyclopropane-carboxamide]
528		31.7	COc1ccc(-c2ccc(NC(=O)C3(c4ccc(Cl)c(F)c4)CC3)cc2-c2nnn[nH]2)cc1OC [Example 16, 1-(4-chloro-3-fluorophenyl)-N-[3′,4′-dimethoxy-2-(1H-tetrazol-5-yl)biphenyl-4-yl]cyclopropane carboxamide]
263		68.5	COc1ccc(-c2ccc(NC(=O)C3(c4cc(Cl)ccc4F)CC3)cc2-c2nnn[nH]2)cc1OC [Example 17, 1-(5-chloro-2-fluorophenyl)-N-[3′,4′-dimethoxy-2-(1H-tetrazol-5-yl)biphenyl-4-yl]cyclopropane carboxamide]
27.4		40.2	COc1ccc(-c2ccc(NC(=O)C3(c4ccc(Cl)cc4F)CC3)cc2-c2nnn[nH]2)cc1OC [Example 18, 1-(4-chloro-2-fluorophenyl)-N-[3′,4′-dimethoxy-2-(1H-tetrazol-5-yl)biphenyl-4-yl]cyclopropane carboxamide]
35.2	145	176	COc1ccc(-c2ccc(NC(=O)C3(c4ccc(Cl)cn4)CC3)cc2-c2nnn[nH]2)cc1OC [Example 23, 1-(5-chloropyridin-2-yl)-N-[3′,4′-dimethoxy-2-(1H-tetrazol-5-yl)biphenyl-4-yl]cyclopropane carboxamide]
104		128	COc1ccc(-c2ccc(NC(=O)C3(c4ccccc4Cl)CC3)cc2-c2nnn[nH]2)cc1OC [Example 36, 1-(2-chlorophenyl)-N-[3′,4′-dimethoxy-2-(1H-tetrazol-5-yl)biphenyl-4-yl]cyclopropane carboxamide]
5.47	5.7	23	COc1ccc(-c2ccc(NC(=O)C3(c4ccc(C(F)(F)F)cc4)CC3)cc2-c2nnn[nH]2)cc1OC [Example 44, N-[3′,4′-dimethoxy-2-(1H-tetrazol-5-yl)biphenyl-4-yl]-1-[4-(trifluoromethyl)phenyl] cyclopropane-carboxamide]
29.3		50.5	COc1ccc(-c2ccc(NC(=O)C3(c4ccc(F)c(C)c4)CC3)cc2-c2nnn[nH]2)cc1OC [Example 48, N-[3′,4′-dimethoxy-2-(1H-tetrazol-5-yl)biphenyl-4-yl]-1-(4-fluoro-3-methylphenyl) cyclopropane-carboxamide]
20.2	15.3	21.7	COc1ccc(-c2ccc(NC(=O)C3(C4CCC(C)(C)CC4)CC3)cc2-c2nnn[nH]2)cc1OC [Example 56, N-[3′,4′-dimethoxy-2-(1H-tetrazol-5-yl)biphenyl-4-yl]-1-(4,4-dimethyl-cyclohexyl) cyclopropane-carboxamide]
6	9.27	12.5	CCOc1ccc(-c2ccc(NC(=O)C3(c4ccc(Cl)c(F)c4)CC3)cc2-c2nnn[nH]2)cn1 [Example 70, 1-(4-chloro-3-fluorophenyl)-N-[4-(6-ethoxypyridin-3-yl)-3-(1H-tetrazol-5-yl)phenyl] cyclopropane-carboxamide]
5.72	6.82	15.5	CCOc1ccc(-c2ccc(NC(=O)C3(c4ccc(C(F)(F)F)cc4F)CC3)cc2-c2nnn[nH]2)cn1 [Example 72, N-[4-(6-ethoxypyridin-3-yl)-3-(1H-tetrazol-5-yl)phenyl]-1-[2-fluoro-4-(trifluoromethyl)phenyl] cyclopropane-carboxamide]
7.98	13.9	16.2	CCOc1ccc(-c2ccc(NC(=O)C3(c4cccc(Cl)c4F)CC3)cc2-c2nnn[nH]2)cn1 [Example 73, 1-(3-chloro-2-fluorophenyl)-N-[4-(6-ethoxypyridin-3-yl)-3-(1H-tetrazol-5-yl)phenyl] cyclopropane-carboxamide]
21.7	16.1	24	CCOc1ccc(-c2ccc(NC(=O)C3(c4cc(F)cc(Cl)c4)CC3)cc2-c2nnn[nH]2)cn1 [Example 77, 1-(3-chloro-5-fluorophenyl)-N-[4-(6-ethoxypyridin-3 yl)-3-(1H-tetrazol-5-yl)phenyl] cyclopropane-carboxamide]
15.8	21.2	24.5	CCOc1ccc(-c2ccc(NC(=O)C3(c4cc(Cl)ccc4F)CC3)cc2-c2nnn[nH]2)cn1 [Example 78, 1-(5-chloro-2-fluorophenyl)-N-[4-(6-ethoxypyridin-3-yl)-3-(1H-tetrazol-5-yl)phenyl] cyclopropane-carboxamide]
24.7		25.1	CCOc1ccc(-c2ccc(NC(=O)C3(c4cccc(F)c4F)CC3)cc2-c2nnn[nH]2)cn1 [Example 79, 1-(2,3-difluorophenyl)-N-[4-(6-ethoxypyridin-3-yl)-3-(1H-tetrazol-5-yl)phenyl] cyclopropane-carboxamide]
	2160		CCC1CCN(c2ccc(NC(=O)C3(c4ccc(F)c(F)c4)CC3)cc2-c2nnn[nH]2)C1=O (centres unmarked) [Example 406, 1-(3,4-difluorophenyl)-N-[4-(3-ethyl-2-oxopyrrolidin-1-yl)-3-(1H-tetrazol-5-yl)phenyl]cyclopro-panecarboxa-mide]
	474		CCC1CCN(c2ccc(NC(=O)C3(c4ccc(C)cc4F)CC3)cc2-c2nnn[nH]2)C1=O (centres unmarked) [Example 407, N-[4-(3-ethyl-2-oxopyrrolidin-1-yl)-3-(1H-tetrazol-5-yl)phenyl]-1-(2-fluoro-4-methylphenyl)cy-clopropanecar-boxamide]
	131		CCC1CCN(c2ccc(NC(=O)C3(c4ccc(C(F)(F)F)cc4F)CC3)cc2-c2nnn[nH]2)C1=O (centres unmarked) [Example 408, N-[4-(3-ethyl-2-oxopyrrolidin-1-yl)-3-(1H-tetrazol-5-yl)phenyl]-1-[2-fluoro-4-(trifluoromethyl)phenyl]cyclopro-panecarboxamide]
	54.7		CCC1CCN(c2ccc(NC(=O)C3(c4ccc(OC(F)(F)F)cc4F)CC3)cc2-c2nnn[nH]2)C1=O (centres unmarked) [Example 409, N-[4-(3-ethyl-2-oxopyrrolidin-1-yl)-3-(1H-tetrazol-5-yl)phenyl]-1-[2-fluoro-4-(trifluoromethoxy)phenyl]cyclo-propanecarboxa-mide]
	6.05		CC(C)(C)c1cnn(-c2ccc(NC(=O)C3(c4ccc(C(F)(F)F)cc4F)CC3)cc2-c2nnn[nH]2)c1 [Example 410, 1-[2-fluoro-4-(trifluoromethyl)phenyl]-N-[4-(4-tert-butyl-1H-pyrazol-1-yl)-3-(1H-tetrazol-5-yl)phenyl]cyclopro-panecarboxa-mide]
	6.84		CC(C)(C)c1cnn(-c2ccc(NC(=O)C3(c4ccc(OC(F)(F)F)cc4F)CC3)cc2-c2nnn[nH]2)c1 [Example 411, 1-[2-fluoro-4-(trifluoromethoxy)phenyl]-N-[4-(4-tert-butyl-1H-pyrazol-1-yl)-3-(1H-tetrazol-5-yl)phenyl]cyclopro-pranecarboxa-mide]
	504		O=C(Nc1ccc(-n2cnc(C(F)(F)F)n2)c(-c2nnn[nH]2)c1)C1(c2ccc(C(F)(F)F)cc2F)CC1 [Example 412, 1-[2-fluoro-4-(trifluoromethyl)phenyl]-N-{3-(1H-tetrazol-5-yl)-4-[3-(trifluoromethyl)-1H-1,2,4-triazol-1-yl]phenyl}cyclopro-panecarboxa-mide]
	5.84		CC(C)c1cnn(-c2ccc(NC(=O)C3(c4ccc(OC(F)(F)F)cc4F)CC3)cc2-c2nnn[nH]2)c1 [Example 413, 1-[2-fluoro-4-(trifluoromethoxy)phenyl]-N-[4-(4-isopropyl-1H-pyrazol-1-yl)-3-(1H-tetrazol-5-yl)phenyl]cyclopro-panecarboxa-mide]
